A short description of series [1]: Liver S9 incubation, rat. Particulars: rat liver S9, 20 μM.
The test system of series [2] is human ovarian carcinoma xenograft A2780. Kind of series: Antitumor activity by parenteral administration to rats, A2780 xenograft. Format: in vivo, nude rats. As to the method: The required number of animals needed to detect a meaningful response were pooled at the start of the experiment and each was given a subcutaneous implant of a tumor fragment (≈50 mg) with a 13-gauge trocar. For treatment of early-stage tumors, the animals were again pooled before distribution to the various treatment and control groups. For treatment of animals with advanced-stage disease, tumors were allowed to grow to the pre-determined size window (tumors outside the range were excluded) and animals were evenly distributed to various treatment and control groups. Treatment of each animal was based on individual body weight. Treated animals were checked daily for treatment related toxicity/mortality. Each group of animals was weighed before the initiation of treatment (Wt1) and then again following the last treatment dose (Wt2). The difference in body weight (Wt2−Wt1) provides a measure of treatment-related toxicity.
Tumor response was determined by measurement of tumors with a caliper twice a week, until the tumors reach a predetermined “target” size of 1 gm. Tumor weights (mg) were estimated from the formula: Tumor weight=(length×width^2)÷2
Antitumor activity was evaluated at the maximum tolerated dose (MTD) which is defined as the dose level immediately […] which excessive toxicity (i.e. more than one death) occurred. The MTD was frequently equivalent to OD. When death occurred, the day of death was recorded. Treated mice dying prior to having their tumors reach target size were considered to have died from drug toxicity. No control mice died bearing tumors less than target size. Treatment groups with more than one death caused by drug toxicity were considered to have had excessively toxic treatments and their data were not included in the evaluation of a compound's antitumor efficacy.
Tumor response end-point was expressed in terms of tumor growth delay (T−C value), defined as the difference in time (days) required for the treated tumors (T) to reach a predetermined target size compared to those of the control group (C).
To estimate tumor cell kill, the tumor volume doubling time was first calculated with the formula: TVDT=Median time (days) for control tumors to reach target size−Median time (days) for control tumors to reach half the target size and Log cell kill=T−C÷(3.32×TVDT)
Compound A was evaluated versus the human ovarian carcinoma xenograft A2780 grown in nude rats. […] In comparison, Compound B produced 3.3 LCK at its MTD (2.4 mg/kg/inj, IV, every 8 days×2).

Series [3] deals with tubulin isolated from calf brain. It counts as biochemical.
For series [4], the system named is HCT116/VM46 cells. Kind of series: In vitro cytotoxicity assay (MTS), HCT116/VM46. Format: cell-based, human. Conditions: Homo sapiens, HCT-116/VM46; HCT116/VM46 (MDR colon line), 72-hour incubation.
A short description of series [5]: Single dose pharmacokinetic study in dogs. Format: in vivo, beagle dogs. How it is done: The vehicle used for both IV and oral dose was propylene glycol:ethanol:phosphate buffer (pH 7.4-8.0) (40:5:55). […] The VSS value after IV administration was 4.7 L/kg, which is greater than the reported total body water of 0.6 L/kg in dogs, indicating significant extravascular distribution of Compound A. The T-HALF of Compound A was 3.9 and 3.1 h after IV and oral administration, respectively.

A short description of series [6]: Stability of diluted solutions. Format: physicochemical. Particulars: diluted with 0.9% Sodium Chloride Injection, 5° C. or room temperature and room light.

One may read the IC50 as the concentration needed to halve the response being measured. Read a low IC50 as higher potency. As usually defined, the bioavailability is dose-corrected exposure relative to a reference, in per cent. Regarding `C/C(=C\c1csc(CN)n1)[C@@H]1C[C@@H]2O[C@]2(C)CCC[C@H](C)[C@H](O)[C@@H](C)C(=O)C(C)(C)[C@@H](O)CC(=O)O1` (relative stereo) [Compound A, [1S-[1R*,3R*(E),7R*,10S*,11R*,12R*,16S*]]-3-[2-[2-(aminomethyl)-4-thiazolyl]-1-methylethenyl]-7,11-dihydroxy-8,8,10,12,16-pentamethyl-4,17-dioxabicyclo[14.1.0]heptadecane-5,9-dione], the “rate of oxidative metabolism” value in series [1] is on record as 0.04. Further, in series [2] (A2780 in nude rats, IV, every 8 days×2, at MTD), the LCK is on record as 0.7. In addition, the MTD in series [2] (nude rats bearing A2780, IV, every 8 days×2) was determined as 3 mg/kg/inj. Further, in series [3], the “Polymerization Potency, EC0.01” value came out at 7400 nM and the “Ratio of Polymerization Potency of Analog/Paclitaxel” value was 1.7. Moreover, the IC50 in series [4] amounted to 11.9 nM. In addition, in series [5] (IV 0.5 mg/kg), the CLT entry is listed as “about 25.7 mL/min/kg” and the T-HALF was 3.9 h. Moreover, the Vd in series [5] (male, beagle, dog, plasma, IV 0.5 mg/kg, read-out: VSS) amounted to 4.7 L/kg. In addition, the bioavailability in series [5] (male, beagle, dog, plasma, oral 1 mg/kg vs IV 0.5 mg/kg, read-out: mean absolute oral bioavailability) was found to be 40%. Also, in series [5] (oral 1 mg/kg), the T-HALF is 3.1 h. In addition, the “time solutions are stable after final dilution” value in series [6] is no more than 24 h.

(Values after patent US6936628B2, “Oral administration of epothilones” (Bristol-Myers Squibb Company, priority 2002, dated 2005).)
